Experimental data published in paper PMC9330635, “Halogenated Pyrrolopyrimidines with Low MIC on Staphylococcus aureus and Synergistic Effects with an Antimicrobial Peptide” (Antibiotics, 2022).
Values after ≈ are worked out from the molar mass of the structure shown. Read-outs that look alike come from different tables or passages of the source.

How the values were obtained:
E. coli TMPK [1] = target: T1, E. coli TMPK (Escherichia coli, UniProt P0A720); assay: E. coli TMPK assay (ProFoldin kit); format: biochemical; settings: enzymatic; read-out: IC50 towards E. coli TMPK
T1 construct: purchased ProFoldin TMK100KE
Procedure: (§1) The inhibition of EcTMPK was determined by Profoldin using the E. coli Thymidylate Kinase Assay Kit Plus (ProFoldin, Catalog No. TMK100KE, Hudson, MA, USA), where dTMP was phosphorylated by ATP that was catalyzed by TMPK. The assay was run in 96-well black plates at 36 °C. The formation of ADP was measured by adding a fluorescent dye and measuring the fluorescence emission at 535 nm after excitation at 485 nm. The readout was corrected for emission from the assay cocktail and DMSO. An ADP control assay was also performed to correct for possible interference with ADP detection. Single-point inhibitions were measured at 8.3 µM inhibitor concentrations. The IC50-values were determined from a similar assay, where 2-fold dilution series from […] were used. The assay towards the human enzyme was run similarly but using the Human Thymidylate Kinase Assay Kit Plus-500 (Catalog Number: HTMK500KE, ProFoldin, Hudson, MA, USA).

E. coli (MG1655) = assay: MIC by broth microdilution, E. coli; format: cell-based, Escherichia coli; settings: for MIC: Escherichia coli, E. coli MG1655, broth microdilution
Procedure: (§2) In this study, we have, therefore, altered our strategy and used minimal inhibitory concentration assays to identify and improve antibacterial agents. A total of 10 pyrrolopyrimidines with variation of the 4-amino group were assayed for their MIC in E. coli (MG1655) and S. aureus (ATCC29213) using the broth microdilution method. Subsequently, the compounds were also counter-screened for their inhibition of human EGFR.
(§3) The MIC of compound 1–21 towards Escherichia coli (MG1655) and Staphylococcus aureus (ATCC29213) was determined following the standards that were recommended by the Clinical and Laboratory Standards Institute (CLSI) for the broth microdilution method. Briefly, the bacterial suspensions were adjusted to 0.5 McFarland standard (~1 × 10^8 colony forming units (CFU)/mL) and diluted 1:200 in Cation-Adjusted Mueller-Hinton Broth (CAMHB, […], […]). The suspension was subsequently added to polypropylene microtiter plates (100 µL/well, ~5 × 10^4 CFU/well) that were already prepared with different concentrations of the various halogenated fused pyrimidines (11 µL/well, two-fold serial dilutions). The plates were incubated at 37 °C overnight before inspection for visible growth and determination of the MIC values.

human TMPK = target: T2, human TMPK (Homo sapiens, UniProt P23919); assay: Human TMPK assay (ProFoldin kit); format: biochemical; settings: enzymatic; read-out: IC50 towards human TMPK
T2 construct: purchased ProFoldin HTMK500KE
T2 sequence (P23919 1-212): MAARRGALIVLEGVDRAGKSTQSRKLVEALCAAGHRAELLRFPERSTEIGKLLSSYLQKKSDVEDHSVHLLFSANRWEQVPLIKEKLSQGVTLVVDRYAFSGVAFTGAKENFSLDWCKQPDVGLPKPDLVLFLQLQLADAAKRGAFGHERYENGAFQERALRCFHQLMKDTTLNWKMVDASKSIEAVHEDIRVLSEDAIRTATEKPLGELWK
Procedure: as §1

human EGFR = target: T3, human EGFR (Homo sapiens, UniProt P00533); assay: Enzymatic EGFR (ErbB1) inhibition, Z'-LYTE; format: biochemical; settings: for inhibition at 0.1 µM: 100 nM compound, ATP equal to KM; for IC50: average of 2 titration curves, ATP equal to apparent KM, read-out: IC50 towards EGFR
T3 construct: purchased Invitrogen (ThermoFisher), assay service
Procedure: The compounds were supplied in a 10 mM DMSO solution, and enzymatic EGFR (ErbB1) inhibition potency was determined by Invitrogen (ThermoFisher) using their Z’-LYTE® assay technology. The compounds were tested for their inhibitory activity at 100 nM in duplicates. The IC50 values that were reported for 1 and 5 are based on the average of 2 titration curves (20 data points), and were calculated from activity data with a four-parameter logistic model using SigmaPlot (Windows Version 12.0 from Systat Software, Inc., Palo Alto, CA, USA). Unless stated otherwise, the ATP concentration that was used was equal to apparent KM.

S. aureus = assay: MIC towards S. aureus in combination with the peptide betatide; format: cell-based, Staphylococcus aureus; settings: betatide 8 mg/L (half its MIC)
Procedure: The concentration of betatide was 8 mg/L, which corresponds to half the MIC concentration.
as §3

S. aureus (ATCC29213) = assay: MIC by broth microdilution, S. aureus; format: cell-based, Staphylococcus aureus; settings: Staphylococcus aureus
Procedure: as §2, §3

[2] = system: panel of 50 human kinases (EGFR most inhibited); assay: Kinase panel, Z'-LYTE, 50 human kinases; format: biochemical
Procedure: As the starting point of this study was the EGFR inhibitor PKI-166 (1), there is an obvious risk of kinase off-target effects for the bromo derivative 5. Therefore, we profiled 5 towards a panel of 50 human kinases. […] Based on our previous experience, it is assumed that the EGFR inhibiting activity of 5 is too low to cause in vivo effects.
The compounds were supplied in a 10 mM DMSO solution, and enzymatic kinase inhibition potency was determined by ThermoFisher (Invitrogen, Waltham, MA, USA) using their Z’-LYTE® assay technology, at 500 nM in duplicates. The ATP concentration that was used was equal to Km, except when this service was not provided, and other concentrations had to be used.

E. coli TMPK [3] = target: T1, E. coli TMPK; set-up: method as in doi:10.1002/slct.202103796; settings: previous study; read-out: IC50 against E. coli TMPK; cited from earlier work
[4] = ATCC29213, S. aureus, single agent (Table 3), read-out: Single Comp. MIC
[5] = S. aureus ATCC29213, broth microdilution, read-out: S. aureus MIC

T3 sequence (P00533 25-1210): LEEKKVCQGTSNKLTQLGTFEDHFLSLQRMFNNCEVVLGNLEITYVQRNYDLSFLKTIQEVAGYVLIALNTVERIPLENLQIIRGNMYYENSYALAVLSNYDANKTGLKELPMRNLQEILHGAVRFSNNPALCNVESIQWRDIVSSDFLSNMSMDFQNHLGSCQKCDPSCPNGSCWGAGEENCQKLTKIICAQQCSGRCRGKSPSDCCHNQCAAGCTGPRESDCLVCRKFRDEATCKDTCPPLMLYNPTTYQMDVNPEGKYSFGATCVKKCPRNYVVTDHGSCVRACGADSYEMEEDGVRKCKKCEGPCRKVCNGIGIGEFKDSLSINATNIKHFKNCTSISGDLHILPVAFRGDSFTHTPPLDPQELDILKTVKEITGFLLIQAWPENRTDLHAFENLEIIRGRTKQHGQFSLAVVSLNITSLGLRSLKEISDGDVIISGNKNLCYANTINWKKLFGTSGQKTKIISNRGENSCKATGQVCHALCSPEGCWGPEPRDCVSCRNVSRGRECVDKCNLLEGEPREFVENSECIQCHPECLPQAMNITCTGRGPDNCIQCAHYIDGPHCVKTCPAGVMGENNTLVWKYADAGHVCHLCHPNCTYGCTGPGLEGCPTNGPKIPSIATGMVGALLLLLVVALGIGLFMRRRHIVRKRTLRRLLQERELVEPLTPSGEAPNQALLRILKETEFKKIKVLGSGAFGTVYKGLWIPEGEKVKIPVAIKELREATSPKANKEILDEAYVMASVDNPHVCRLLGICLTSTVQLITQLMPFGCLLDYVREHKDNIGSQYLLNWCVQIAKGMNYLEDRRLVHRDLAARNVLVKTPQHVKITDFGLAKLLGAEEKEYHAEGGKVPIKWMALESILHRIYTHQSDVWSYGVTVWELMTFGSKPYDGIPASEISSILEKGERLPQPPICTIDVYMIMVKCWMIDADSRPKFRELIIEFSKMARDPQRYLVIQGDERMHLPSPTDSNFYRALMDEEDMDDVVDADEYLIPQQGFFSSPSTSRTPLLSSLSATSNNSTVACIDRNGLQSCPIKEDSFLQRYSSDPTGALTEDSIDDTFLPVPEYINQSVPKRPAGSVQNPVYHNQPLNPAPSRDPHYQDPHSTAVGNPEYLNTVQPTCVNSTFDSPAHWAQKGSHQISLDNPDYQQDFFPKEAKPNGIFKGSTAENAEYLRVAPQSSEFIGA
T1 sequence (P0A720 whole entry): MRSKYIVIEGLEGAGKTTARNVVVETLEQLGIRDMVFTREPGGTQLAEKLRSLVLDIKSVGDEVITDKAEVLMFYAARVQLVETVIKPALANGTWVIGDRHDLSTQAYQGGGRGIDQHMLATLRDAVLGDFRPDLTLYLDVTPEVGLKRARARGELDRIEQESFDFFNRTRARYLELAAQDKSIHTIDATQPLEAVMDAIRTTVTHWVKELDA

SMILES	IC50 (E. coli TMPK [1]) [µM]	MIC (E. coli (MG1655)) [µg/mL]	IC50 (human TMPK) [µM]	inhibition at 0.1 µM (human EGFR) [%]	IC50 (human EGFR) [µM]	Combination with Betatide MIC (S. aureus) [µg/mL]	MIC (S. aureus (ATCC29213); [4]) [µg/mL]	MIC (S. aureus (ATCC29213); [5]) [µg/mL]	EGFR inhibition in kinase panel ([2]; 500 nM test concentration) [%]	Inhibition of all the other kinases of the panel ([2]; 500 nM, 50 human kinases, other than EGFR)	IC50 (E. coli TMPK [3]) [µM]	Activity towards E. coli in culture (in words) (E. coli (MG1655); culture, MIC assay)
C[C@@H](Nc1ncnc2[nH]c(-c3ccc(O)cc3)cc12)c1ccc(Br)cc1 [Compound 5, (R)-4-(4-((1-(4-Bromophenyl)ethyl)amino)-7H-pyrrolo[2,3-d]pyrimidin-6-yl)phenol]	5	> 128	> 100	81	0.025	1	8 (≈ 19.5 µM)	8 (≈ 19.5 µM)	91	very low inhibition		
C[C@@H](Nc1ncnc2[nH]c(-c3ccc(O)cc3)cc12)c1ccccc1 [Compound 1, (R)-4-(4-((1-Phenylethyl)amino)-7H-pyrrolo[2,3-d]pyrimidin-6-yl)phenol, reference compound]		> 128		100	< 0.001	8	64 (≈ 194 µM)	64 (≈ 194 µM)			15	did not possess any activity
